Reference: patent US20240343704A1, “HALO-SUBSTITUTED AMINO PYRIDINE COMPOUNDS AS INHIBITORS OF THE HAEMATOPOIETIC PROGENITOR KINASE 1 (HPK1)” (priority 2021, published 2024)
Structures can show the parent of a compound that is named as a salt.

Experiments:
[1] = target: T1, Recombinant (1-346) HPK1 (h) (Homo sapiens, UniProt Q92918); test: HPK1 Human STE Kinase Enzymatic Radiometric Assay; assay type: biochemical; conditions: read-out: HPK1 IC50 nM Range*
T1 construct: Recombinant (1-346) HPK1 (h) is incubated with 8 mM MOPS pH 7.0
T1 sequence (Q92918 1-346): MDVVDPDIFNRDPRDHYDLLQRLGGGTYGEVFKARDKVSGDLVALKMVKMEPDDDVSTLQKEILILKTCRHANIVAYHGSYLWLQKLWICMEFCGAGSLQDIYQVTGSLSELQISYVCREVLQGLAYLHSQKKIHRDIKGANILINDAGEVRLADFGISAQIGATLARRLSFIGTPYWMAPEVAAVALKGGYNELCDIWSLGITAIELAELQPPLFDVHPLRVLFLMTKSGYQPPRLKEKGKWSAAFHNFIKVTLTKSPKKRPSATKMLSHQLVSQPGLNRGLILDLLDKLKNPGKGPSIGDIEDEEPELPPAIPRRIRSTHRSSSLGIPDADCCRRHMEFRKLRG
Experimental: A stock solution of 10 mM of test compound is prepared in DMSO. The compound plate was prepared by 3-fold and 9-point serial dilutions. […] The reaction is initiated by The addition of the Mg/ATP mix. After incubation for 40 minutes at RT, the reaction is stopped by the addition of phosphoric acid to a concentration of 0.5%.

Lck (h) = Lck (h) (Homo sapiens, UniProt P06239); test: Lck Human  Kinase Enzymatic Radiometric Assay; assay type: biochemical; conditions: read-out: Lck IC50 nM Range*
Chain of Lck (h) (P06239 whole entry): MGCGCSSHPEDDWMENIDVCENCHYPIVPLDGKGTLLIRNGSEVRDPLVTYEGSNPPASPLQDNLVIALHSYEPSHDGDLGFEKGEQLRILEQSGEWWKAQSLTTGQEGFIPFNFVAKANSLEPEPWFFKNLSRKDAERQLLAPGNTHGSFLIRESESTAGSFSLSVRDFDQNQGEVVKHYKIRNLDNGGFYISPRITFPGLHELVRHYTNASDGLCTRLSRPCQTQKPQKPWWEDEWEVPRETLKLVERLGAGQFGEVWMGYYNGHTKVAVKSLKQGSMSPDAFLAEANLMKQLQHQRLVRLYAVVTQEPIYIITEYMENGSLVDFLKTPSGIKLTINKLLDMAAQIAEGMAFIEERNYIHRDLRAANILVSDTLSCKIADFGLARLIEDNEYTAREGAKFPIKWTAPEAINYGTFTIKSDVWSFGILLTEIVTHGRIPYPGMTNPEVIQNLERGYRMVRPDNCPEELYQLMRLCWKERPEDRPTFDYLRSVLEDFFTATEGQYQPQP
How it was run: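 Substrate 33P-incorporation measured by scintillation counting after spotting on P30 filtermat and phosphoric acid washes. Human Lck reacted 40 min at RT in 50 mM Tris pH 7.5 with 10 mM MgAcetate, [gamma-33P]-ATP, 250 uM Cdc2 peptide, 0.1 mM EGTA and 0.1 mM Na3VO4.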

| SMILES | IC50 [1] | IC50 (Lck (h)) |
| --- | --- | --- |
| Nc1nc(F)c(-c2ccc3c(c2)CNCC3)cc1-c1ccc2c(c1)CCNC2=O [I-334, 6-(2-amino-6-fluoro-5-(1,2,3,4-tetrahydroisoquinolin-7-yl)pyridin-3-yl)-3,4-dihydroisoquinolin-1(2H)-one 2,2,2-trifluoroacetate] | 11 to 100 nM | > 1000 nM |
| CC(C)[C@H]1CN(c2ccc(-c3cc(-c4ccc5c(c4)CCNC5=O)c(N)nc3F)cc2C(F)(F)F)CCO1 [I-130, (S)-6-(2-amino-6-fluoro-5-(4-(2-isopropylmorpholino)-3-(trifluoromethyl)phenyl)pyridin-3-yl)-3,4-dihydroisoquinolin-1(2H)-one] | 11 to 100 nM | > 1000 nM |
| CC(C)N1CCC2(CC1)OCc1cc(-c3cc(-c4ccc5c(c4)CCNC5=O)c(N)nc3F)ccc1O2 [I-218, 6-(2-amino-6-fluoro-5-(1′-isopropyl-4H-spiro[benzo[d][1,3]dioxine-2,4′-piperidin]-6-yl)pyridin-3-yl)-3,4-dihydroisoquinolin-1(2H)-one] | 0.1 to 10 nM | > 1000 nM |
| CC(C)[C@@H]1CN(c2ccc(-c3cc(-c4ccc5c(c4)CCNC5=O)c(N)nc3Cl)c(F)c2)CCO1 [I-137, (R)-6-(2-amino-6-chloro-5-(2-fluoro-4-(2-isopropylmorpholino)phenyl)pyridin-3-yl)-3,4-dihydroisoquinolin-1(2H)-one] | 11 to 100 nM | > 1000 nM |
| CCN1CC=C(c2ccc(-c3cc(-c4ccc5c(c4)CCNC5=O)c(N)nc3F)cc2)C1 [I-120, 6-(2-amino-5-(4-(1-ethyl-2,5-dihydro-1H-pyrrol-3-yl)phenyl)-6-fluoropyridin-3-yl)-3,4-dihydroisoquinolin-1(2H)-one] | 0.1 to 10 nM | > 1000 nM |
| COCCN1CCC(Oc2ccc(-c3cc(-c4ccc5c(c4)CCNC5=O)c(N)nc3F)cc2C(F)(F)F)CC1 [I-262, 6-(2-amino-6-fluoro-5-(4-((1-(2-methoxyethyl)piperidin-4-yl)oxy)-3-(trifluoromethyl)phenyl)pyridin-3-yl)-3,4-dihydroisoquinolin-1(2H)-one] | 0.1 to 10 nM | > 1000 nM |
| Nc1nc(F)c(-c2ccc(C3CCOCC3)c([C@@H]3CCCN3)c2)cc1-c1cc(F)c2c(c1)CCNC2=O [I-369, (S)-6-(2-amino-6-fluoro-5-(3-(pyrrolidin-2-yl)-4-(tetrahydro-2H-pyran-4-yl)phenyl)pyridin-3-yl)-8-fluoro-3,4-dihydroisoquinolin-1(2H)-one] | 0.1 to 10 nM | > 1000 nM |
| CC(C)[C@H]1CN(c2ccc(-c3cc(-c4cc5c(cn4)C(=O)NCC5)c(N)nc3F)cc2)CCO1 [I-77, (S)-6-(2-amino-6-fluoro-5-(4-(2-isopropylmorpholino)phenyl)pyridin-3-yl)-3,4-dihydro-2,7-naphthyridin-1(2H)-one 2,2,2-trifluoroacetate] | 0.1 to 10 nM | > 1000 nM |
| CC(C)N1C[C@@H]2C[C@]2(c2ccc(-c3cc(-c4ccc5c(c4)CCNC5=O)c(N)nc3F)cc2)C1 [I-111, 6-(2-amino-6-fluoro-5-(4-((1S,5R)-3-isopropyl-3-azabicyclo[3.1.0]hexan-1-yl)phenyl)pyridin-3-yl)-3,4-dihydroisoquinolin-1(2H)-one 2,2,2-trifluoroacetate] | 0.1 to 10 nM | > 1000 nM |
| Nc1nc(F)c(-c2ccc(N3CCN(CC(F)F)CC3)cc2)cc1-c1ccc2c(c1)CCNC2=O [I-21, 6-(2-amino-5-(4-(4-(2,2-difluoroethyl)piperazin-1-yl)phenyl)-6-fluoropyridin-3-yl)-3,4-dihydroisoquinolin-1(2H)-one] | 0.1 to 10 nM | > 1000 nM |
| CC(C)N1CCC[C@H](Oc2ccc(-c3cc(-c4ccc5c(c4)CCNC5=O)c(N)nc3F)cc2)C1 [I-274, (S)-6-(2-amino-6-fluoro-5-(4-((1-isopropylpiperidin-3-yl)oxy)phenyl)pyridin-3-yl)-3,4-dihydroisoquinolin-1(2H)-one] | 0.1 to 10 nM | > 1000 nM |

Results, then the compound that gave them:

| IC50 [1] | IC50 (Lck (h)) | SMILES |
| --- | --- | --- |
| 0.1 to 10 nM | > 1000 nM | CC(C)N1CCC(Oc2ccc(-c3cc(-c4ccc5c(c4)CCNC5=O)c(N)nc3F)cc2F)CC1 [I-268, 6-(2-amino-6-fluoro-5-(3-fluoro-4-((1-isopropylpiperidin-4-yl)oxy)phenyl)pyridin-3-yl)-3,4-dihydroisoquinolin-1(2H)-one] |
| 0.1 to 10 nM | > 1000 nM | CN(C)C1CCN(c2ccc(-c3cc(-c4ccc5c(c4)CCNC5=O)c(N)nc3F)cc2)CC1 [I-283, 6-(2-amino-5-(4-(4-(dimethylamino)piperidin-1-yl)phenyl)-6-fluoropyridin-3-yl)-3,4-dihydroisoquinolin-1(2H)-one] |
| 0.1 to 10 nM | 101 to 1000 nM | Nc1nc(F)c(-c2ccc([C@]34C[C@H]3CN(CC3CC3)C4)cc2)cc1-c1cc(F)c2c(c1)CCNC2=O [I-320, 6-(2-amino-5-(4-((1S,5R)-3-(cyclopropylmethyl)-3-azabicyclo[3.1.0]hexan-1-yl)phenyl)-6-fluoropyridin-3-yl)-8-fluoro-3,4-dihydroisoquinolin-1(2H)-one formate] |
| 0.1 to 10 nM | > 1000 nM | Nc1nc(F)c(-c2ccc(N3CCN(CC4CC4)CC3)cc2)cc1-c1cc(F)c2c(c1)CCNC2=O [I-307, 6-(2-amino-5-(4-(4-(cyclopropylmethyl)piperazin-1-yl)phenyl)-6-fluoropyridin-3-yl)-8-fluoro-3,4-dihydroisoquinolin-1(2H)-one] |
| 0.1 to 10 nM | > 1000 nM | COCCN(C)[C@@H]1CCN(c2ccc(-c3cc(-c4ccc5c(c4)CCNC5=O)c(N)nc3F)cc2)C1 [I-160, (R)-6-(2-amino-6-fluoro-5-(4-(3-((2-methoxyethyl)(methyl)amino)pyrrolidin-1-yl)phenyl)pyridin-3-yl)-3,4-dihydroisoquinolin-1(2H)-one] |
| 0.1 to 10 nM | > 1000 nM | CC(=O)N1CCN(c2ccc(-c3cc(-c4ccc5c(c4)CCNC5=O)c(N)nc3F)nc2)CC1 [I-591, 6-(5-(4-acetylpiperazin-1-yl)-6′-amino-2′-fluoro-[2,3′-bipyridin]-5′-yl)-3,4-dihydroisoquinolin-1(2H)-one] |
| 0.1 to 10 nM | > 1000 nM | Nc1nc(F)c(-c2ccc(OC3CCOCC3)cc2)cc1-c1ccc2c(c1)CCNC2=O [I-35, 6-(2-amino-6-fluoro-5-(4-((tetrahydro-2H-pyran-4-yl)oxy)phenyl)pyridin-3-yl)-3,4-dihydroisoquinolin-1(2H)-one] |
| 0.1 to 10 nM | > 1000 nM | CC(C)N1CCN(c2ccc(-c3cc(-c4ccc5c(c4)CCNC5=O)c(N)nc3F)cc2)CC1C (stereo not shown) [I-278, 6-(2-amino-6-fluoro-5-(4-(4-isopropyl-3-methylpiperazin-1-yl)phenyl)pyridin-3-yl)-3,4-dihydroisoquinolin-1(2H)-one] |
| 0.1 to 10 nM | > 1000 nM | Nc1nc(F)c(-c2ccc(N3CCN(CC4CC4)CC3)cc2)cc1-c1cc2c(F)c[nH]c(=O)c2cc1F [I-548, 6-(2-amino-5-(4-(4-(cyclopropylmethyl)piperazin-1-yl)phenyl)-6-fluoropyridin-3-yl)-4,7-difluoroisoquinolin-1(2H)-one] |
| 11 to 100 nM | > 1000 nM | C[C@@H]1CCCN1c1ccc(-c2cc(-c3ccc4c(c3)CCNC4=O)c(N)nc2F)c(F)c1 [I-47, (R)-6-(2-amino-6-fluoro-5-(2-fluoro-4-(2-methylpyrrolidin-1-yl)phenyl)pyridin-3-yl)-3,4-dihydroisoquinolin-1(2H)-one] |
| 0.1 to 10 nM | > 1000 nM | CN(C)Cc1cc(-c2cc(-c3ccc4c(c3)CCNC4=O)c(N)nc2F)ccc1N1CCN(CCCC(F)F)CC1 [I-445, 6-(2-amino-5-(4-(4-(4,4-difluorobutyl)piperazin-1-yl)-3-((dimethylamino)methyl)phenyl)-6-fluoropyridin-3-yl)-3,4-dihydroisoquinolin-1(2H)-one] |
| 0.1 to 10 nM | > 1000 nM | CC(C)N1CCN(c2ccc(-c3cc(-c4ccc5c(c4)CCNC5=O)c(N)nc3F)cc2)CC1 [I-42, 6-(2-amino-6-fluoro-5-(4-(4-isopropylpiperazin-1-yl)phenyl)pyridin-3-yl)-3,4-dihydroisoquinolin-1(2H)-one] |
| 0.1 to 10 nM | 0.1 to 10 nM | CC(C)N1CCN(c2ccc(-c3cc(-c4cc(F)c5c(c4)CCNC5=O)c(N)nc3F)cc2F)CC1 [I-386, 6-(2-amino-6-fluoro-5-(3-fluoro-4-(4-isopropylpiperazin-1-yl)phenyl)pyridin-3-yl)-8-fluoro-3,4-dihydroisoquinolin-1(2H)-one] |
| 0.1 to 10 nM | > 1000 nM | Cc1nc2cc(-c3cc(-c4ccc(N5CCN(CCC6CC6)CC5)cc4)c(F)nc3N)cc(F)c2c(=O)[nH]1 [I-417, 7-(2-amino-5-(4-(4-(2-cyclopropylethyl)piperazin-1-yl)phenyl)-6-fluoropyridin-3-yl)-5-fluoro-2-methylquinazolin-4(3H)-one] |
| 0.1 to 10 nM | > 1000 nM | COCCN1CCc2cc(-c3cc(-c4cc5c(cc4F)C(=O)NCC5)c(N)nc3F)ccc2C1 [I-300, 6-(2-amino-6-fluoro-5-(2-(2-methoxyethyl)-1,2,3,4-tetrahydroisoquinolin-6-yl)pyridin-3-yl)-7-fluoro-3,4-dihydroisoquinolin-1(2H)-one] |
